ChEMBL document CHEMBL1201862, “PubChem BioAssay data set” (2004)
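Exposure lasted 48 hours, with cells grown in 96-well plates and compounds tested at five concentrations. GI50 = concentration required for 50% inhibition of growth.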 Active and inactive are the calls of the source. No stated cut-off is given here; in the data, active = GI50 up to about 1.1 µM and inactive = higher.

Key:
Assay in all cases: NCI anticancer screen, dose series, 48 h
SN12C = system: SN12C
HCT-15 = system: HCT-15
SK-MEL-5 = system: SK-MEL-5
786-0 = system: 786-0
NCI-H226 = system: NCI-H226
TK-10 = system: TK-10
IGROV-1 = system: IGROV-1
COLO 205 = system: COLO 205
MDA-MB-231 = system: MDA-MB-231
HCC 2998 = system: HCC 2998
CAKI-1 = system: CAKI-1
PC-3 = system: PC-3
UACC-257 = system: UACC-257
OVCAR-3 = system: OVCAR-3
K562 = system: K562
RPMI-8226 = system: RPMI-8226
SK-MEL-2 = system: SK-MEL-2
UO-31 = system: UO-31
NCI-H460 = system: NCI-H460
OVCAR-4 = system: OVCAR-4

| SMILES | GI50 (SN12C) | GI50 (HCT-15) [µM] | GI50 (SK-MEL-5) | GI50 (786-0) | GI50 (NCI-H226) | GI50 (TK-10) | GI50 (IGROV-1) | GI50 (COLO 205) | GI50 (MDA-MB-231) | GI50 (HCC 2998) | GI50 (CAKI-1) | GI50 (PC-3) | GI50 (UACC-257) | GI50 (OVCAR-3) | GI50 (K562) | GI50 (RPMI-8226) | GI50 (SK-MEL-2) | GI50 (UO-31) | GI50 (NCI-H460) | GI50 (OVCAR-4) |
| --- | --- | --- | --- | --- | --- | --- | --- | --- | --- | --- | --- | --- | --- | --- | --- | --- | --- | --- | --- | --- |
| O=C1NC2(CCNCC2)Oc2ccccc21 | > 100 µM (inactive) | > 100 | > 100 µM (inactive) | > 100 µM (inactive) | > 100 µM (inactive) | > 100 µM (inactive) | > 100 µM (inactive) | > 100 µM (inactive) | > 100 µM (inactive) | > 100 µM (inactive) | > 100 µM (inactive) | > 100 µM (inactive) | > 100 µM (inactive) | > 100 µM (inactive) | > 100 µM (inactive) | > 100 µM (inactive) | > 100 µM (inactive) | > 100 µM (inactive) | > 100 µM (inactive) | > 100 µM (inactive) |
| COc1ccc2nc3cccc([N+](=O)[O-])c3c(NCCO)c2c1 | 0.019 µM (active) | 0.00594 | 0.0188 µM (active) | 0.0112 µM (active) | 0.0378 µM (active) | 0.0336 µM (active) | 0.162 µM (active) | 0.00527 µM (active) | 0.0138 µM (active) | 0.0146 µM (active) | 0.0183 µM (active) | 0.0232 µM (active) | 0.0277 µM (active) | 0.0149 µM (active) | 0.00199 µM (active) | 0.00235 µM (active) | 0.0175 µM (active) | 0.0218 µM (active) | 0.00378 µM (active) | 0.0386 µM (active) |
| COP(=O)(Cc1ccccc1)Cc1ccccc1 | > 100 µM (inactive) | > 100 | > 100 µM (inactive) | > 100 µM (inactive) | > 100 µM (inactive) | > 100 µM (inactive) | > 100 µM (inactive) | > 100 µM (inactive) | > 100 µM (inactive) | > 100 µM (inactive) | > 100 µM (inactive) | > 100 µM (inactive) | > 100 µM (inactive) |  | > 100 µM (inactive) | > 100 µM (inactive) | > 100 µM (inactive) | > 100 µM (inactive) | > 100 µM (inactive) | > 100 µM (inactive) |
| O=c1oc2ccc(Cl)cc2cc1-c1cn2cc(Cl)ccc2n1 | > 89.1 µM (inactive) | 2.36 | > 100 µM (inactive) | > 42.4 µM (inactive) | > 100 µM (inactive) | > 100 µM (inactive) | > 25.8 µM (inactive) | > 100 µM (inactive) | > 70.3 µM (inactive) | > 73.6 µM (inactive) | > 22.4 µM (inactive) | > 100 µM (inactive) | > 100 µM (inactive) | 5.3 µM (inactive) | 5.05 µM (inactive) | > 100 µM (inactive) | > 100 µM (inactive) | > 44 µM (inactive) | 14.4 µM (inactive) | > 100 µM (inactive) |
| CC(C)C(O)(C(=O)OCN1C(=O)C2C3C=CC(C2C1=O)C1C2C(=O)N(COC(=O)C(O)(C(C)C)C(C)O)C(=O)C2C31)C(C)O (stereo not drawn) | > 100 µM (inactive) | > 100 | > 100 µM (inactive) | > 100 µM (inactive) | > 100 µM (inactive) | > 100 µM (inactive) | > 100 µM (inactive) | > 100 µM (inactive) | > 100 µM (inactive) | > 100 µM (inactive) | > 100 µM (inactive) | > 100 µM (inactive) |  | > 100 µM (inactive) | > 100 µM (inactive) | > 100 µM (inactive) | > 100 µM (inactive) | > 100 µM (inactive) | > 100 µM (inactive) | > 100 µM (inactive) |
| CC(=O)OC(C)c1cc2c(s1)C(=O)c1sccc1C2=O (stereo not drawn) | 0.542 µM (active) | 0.902 | 0.139 µM (active) | 4.45 µM (inactive) | 2.04 µM (inactive) | 1.85 µM (inactive) | 2.02 µM (inactive) | 1.89 µM (inactive) | 1.34 µM (inactive) | 1.99 µM (inactive) | 3.14 µM (inactive) | 2.19 µM (inactive) | 0.215 µM (active) | 0.604 µM (active) | 2.69 µM (inactive) | 0.951 µM (active) | 0.504 µM (active) | 1.55 µM (inactive) | 1.06 µM (active) | 1.96 µM (inactive) |
| Cc1cc(S(=O)(=O)Nc2nc3ccccc3nc2-c2cccc([N+](=O)[O-])c2)c(S)cc1Cl | 30 µM (inactive) | 43 | 15 µM (inactive) | 23.8 µM (inactive) | 21.4 µM (inactive) | 35.2 µM (inactive) | 13.2 µM (inactive) | 16.3 µM (inactive) | 58.5 µM (inactive) | 18.8 µM (inactive) | 18.3 µM (inactive) | 19.7 µM (inactive) | 18.1 µM (inactive) | 15.9 µM (inactive) | 26 µM (inactive) | 19.2 µM (inactive) | 21.9 µM (inactive) | 22.5 µM (inactive) | 11 µM (inactive) | 27.5 µM (inactive) |
| COC(=O)Cn1c(=O)oc2nc(-c3ccccc3)cc(C(F)(F)F)c21 | 56.6 µM (inactive) | > 100 | 26.7 µM (inactive) | > 100 µM (inactive) | 35.8 µM (inactive) | > 100 µM (inactive) | 66.1 µM (inactive) | > 100 µM (inactive) | > 100 µM (inactive) | > 100 µM (inactive) | > 100 µM (inactive) | > 100 µM (inactive) | 95.9 µM (inactive) | 75.3 µM (inactive) |  | 27.5 µM (inactive) | > 100 µM (inactive) | > 100 µM (inactive) | > 100 µM (inactive) | 86.3 µM (inactive) |
| CCOC(=O)/C(C(=O)Nc1ccc(Cl)cc1)=C(/N)N1CCOCC1 | > 100 µM (inactive) | > 100 |  | > 100 µM (inactive) | > 100 µM (inactive) | > 100 µM (inactive) | > 100 µM (inactive) | > 100 µM (inactive) | > 100 µM (inactive) | > 100 µM (inactive) | > 100 µM (inactive) | > 100 µM (inactive) | > 100 µM (inactive) | > 100 µM (inactive) | > 100 µM (inactive) | > 100 µM (inactive) | > 100 µM (inactive) |  | > 100 µM (inactive) | > 100 µM (inactive) |
| CCOC(=O)NNC(=O)NCc1cccc(CNC(=O)NNC(=O)OCC)c1 | > 100 µM (inactive) | > 100 | > 100 µM (inactive) | > 100 µM (inactive) | > 100 µM (inactive) | > 100 µM (inactive) |  | > 100 µM (inactive) | > 100 µM (inactive) | > 100 µM (inactive) | > 100 µM (inactive) | > 100 µM (inactive) | > 100 µM (inactive) | > 100 µM (inactive) | > 100 µM (inactive) | > 100 µM (inactive) | > 100 µM (inactive) | > 100 µM (inactive) | > 100 µM (inactive) | > 100 µM (inactive) |
| COC(=O)[C@H]1C=NN[C@@H]1C(=O)N1[C@H]2CC3CC[C@@]2(CS1(=O)=O)C3(C)C | > 100 µM (inactive) | > 100 | > 100 µM (inactive) |  | > 100 µM (inactive) | > 100 µM (inactive) | > 100 µM (inactive) | > 100 µM (inactive) | > 100 µM (inactive) | > 100 µM (inactive) | > 100 µM (inactive) | > 100 µM (inactive) | > 100 µM (inactive) |  | > 100 µM (inactive) | > 100 µM (inactive) | > 100 µM (inactive) | > 100 µM (inactive) | > 100 µM (inactive) | > 100 µM (inactive) |
| C=CCOC(=O)C1=C(CCC[C@@H](C)O[Si](C)(C)C(C)(C)C)N=C(N)N2[C@H](CCO)CC[C@@H]12 | 16.5 µM (inactive) | 17.7 | 12.4 µM (inactive) | 17.9 µM (inactive) | 18.5 µM (inactive) | 16.9 µM (inactive) |  | 10.9 µM (inactive) | 15.3 µM (inactive) | 18.7 µM (inactive) | 13.4 µM (inactive) | 8.45 µM (inactive) | 15.6 µM (inactive) | 11.1 µM (inactive) | 6.34 µM (inactive) | 9.44 µM (inactive) | 15.3 µM (inactive) | 16.1 µM (inactive) | 12.9 µM (inactive) | 10.5 µM (inactive) |
| C/C(=C1/N=C(c2ccccc2)OC1=O)c1ccccc1 | > 100 µM (inactive) | 99.1 | > 100 µM (inactive) | > 100 µM (inactive) | > 100 µM (inactive) | 87.3 µM (inactive) | 68.2 µM (inactive) | > 100 µM (inactive) | > 100 µM (inactive) | > 100 µM (inactive) | > 100 µM (inactive) | > 100 µM (inactive) | > 100 µM (inactive) | 74.5 µM (inactive) | > 100 µM (inactive) | 23.3 µM (inactive) | > 100 µM (inactive) |  | > 100 µM (inactive) | > 100 µM (inactive) |
| COC(=O)C1=C(C(=O)OC)SC2(S1)C(C(=O)OC)=C(C(=O)OC)Sc1c2ss/c1=N\c1ccc(Cl)cc1 | 0.552 µM (active) | 0.318 | 1.39 µM (inactive) | 0.516 µM (active) | 1.79 µM (inactive) | 1.4 µM (inactive) | 1.14 µM (inactive) | 0.774 µM (active) | 0.948 µM (active) | 0.325 µM (active) | 0.733 µM (active) | 0.44 µM (active) | 1.1 µM (active) | 1.39 µM (inactive) | 1.31 µM (inactive) |  | 0.325 µM (active) | 0.804 µM (active) | 0.333 µM (active) | 1.18 µM (inactive) |
| O=C(OC1C#CCSCC#C/C=C\1)c1ccc2c(c1)C(=O)c1ccccc1C2=O (stereo not drawn) | > 100 µM (inactive) | > 100 | 87.1 µM (inactive) |  | 48.8 µM (inactive) | 27.9 µM (inactive) | 34.8 µM (inactive) | 82.2 µM (inactive) | 26.2 µM (inactive) | > 100 µM (inactive) | 37.5 µM (inactive) | > 100 µM (inactive) | > 100 µM (inactive) | > 100 µM (inactive) | > 100 µM (inactive) | > 100 µM (inactive) | 35.8 µM (inactive) | 42.7 µM (inactive) | > 100 µM (inactive) | > 100 µM (inactive) |
